Here are results for one compound from patent US9353087B2, “Inhibitors of Bruton's tyrosine kinase” (Biogen Idec MA Inc., priority 2012, dated 2016).

Where two headings read alike, the source gives them in different places.

Experiment [1] concerns IL-6 expression by FcγR-activated primary human macrophages. As to the kind of experiment: FcγR activation of primary human macrophages: IL-6 expression. It is filed as cell-based. The note with it: Macrophage, human monocyte derived macrophages, plate-bound IgG. From the text: (§1) FcγR activation of primary human macrophages. Autoantibody and immune-complex mediated activation through FcγR can be modeled by activation of macrophages with immobilized IgG. Primary human macrophages derived from GM-CSF treated monocytes up-regulate activation markers such as CD80, CD86, MHC antigens and the FcγRIII receptor. Human monocyte derived macrophages can be activated by plate-bound purified human IgG. This stimulation crosslinks the FcγRIII receptor and induces the secretion of pro-inflammatory cytokines such as TNFα, IL-6, IL 1β and MCP-1.
(§2) Generally, macrophages were cultured in plates previously incubated with purified IgG then washed. […] Cell culture supernatants were analyzed by ELISA for the expression of TNFα and IL-6.
(§3) Protocol: Human monocytes were isolated from buffy coats of healthy donors and negatively selected by magnetic cell sorting (Monocyte Isolation Kit II, Miltenyi Biotec). Purified monocytes were cultured in standard media supplemented with low-IgG FBS and 100 ng/mL GM-CSF for 5-7 days to induce macrophage differentiation. […] Supernatants were collected after 4 hrs and 18 hrs and analyzed for TNFα and IL-6, respectively.

Experiment [2] has as its target T1, hERG (human ether-à-go-go-related gene) potassium channel (Homo sapiens, UniProt Q12809).
T1 construct: host or cells: HEK293
As to the kind of experiment: FastPatch/QPatch hERG inhibition assay in HEK293 cells. It counts as cell-based. The note with it: HEK293 cells stably transfected with hERG cDNA, QPatch HT, IC50 estimated from hERG inhibition data. The text has this: The in vitro effects of provided compounds was investigated on the hERG (human ether-à-go-go-related gene) potassium channel current (a surrogate for IKr, the rapidly activating, delayed rectifier cardiac potassium current) expressed in human embryonic kidney (HEK293) cells stably transfected with hERG cDNA. Cells were placed in HEPES-buffered physiological saline solution in a glass-lined 96-well plate and loaded with appropriate amounts of test and control solutions for a duration of a 3-minute exposure at each concentration. Test compound was diluted in 0.3% DMSO. An automated parallel patch clamp system, QPatch HT (Sophion Bioscience A/S, Denmark), was used to evaluate at various concentrations (e.g., 10 μM). The IC50 values were estimated based on the hERG inhibition data. The study was performed at ChanTest (14656 Neo Parkway, Cleveland, Ohio). The QPatch screen is further described by Janzen and Bernasconi (eds.), High Throughput Screening, Methods and Protocols, Second Edition, vol. 565, chapter 10, pg. 209-223, 2009.

Experiment [3] relates to PLCγ2 phosphorylation in Ramos cells. As to the kind of experiment: BCR pathway activation: inhibition of phosphorylation of PLCγ2 in Ramos cells (electrochemiluminescence immunoassay). It counts as cell-based. The note with it: Homo sapiens, 2 hours compound, 10 μg/mL anti-IgM for 5 minutes, R^2=0.90. How it is done: Protocol: One day before treatment, Ramos cells were plated at a density of 3×10^5 cells per well in 200 μl, of complete medium in a 96-well tissue culture filter plates (Millipore, Billerica, Mass.). On the day of treatment, used medium was removed by filtration and the cells re-suspended in 200 μL serum free medium containing serial compound dilutions and DMSO to 0.1%, then incubated for 2 hours at 37° C. Cells were stimulated for 5 minutes with 10 μg/mL goat anti-human IgM at 37° C. […] After washing with TBST, MSD read buffer was added and the luminescence was measured in an MSD SECTOR Imager 6000. Maximum response was determined as the average luminescence in wells containing stimulated cells treated with anti-IgM and DMSO. Minimal response was determined as the average luminescence in wells containing unstimulated cells treated with DMSO alone. The maximal and minimal values were used to normalize luminescence in compound treatment wells. The normalized values were plotted against compound concentration on a log scale then analyzed using Prizm software (GraphPad Software, Inc.). […]

Another experiment concerns Human CD19+ B cells. Briefly: Inhibition of BCR (anti-IgM)-induced human B cell proliferation. It counts as cell-based. As to conditions: human CD19+ B cells from different donors, 10 μg/ml anti-IgM, 72 hours, CellTiter-Glo, read-out: IC50, anti-IgM-induced B cell cellular metabolism (proliferation). As to the method: In this context, cellular metabolism directly correlates with cellular activation and proliferation, and can also reflect relative cell survival during proliferation. […] The results are shown graphically in FIG. 6.
Protocol: Human B cells were isolated from peripheral blood mononuclear cells or unpurified buffy coats using Ficoll-Hypaque gradients (Amersham) and negatively selected by magnetic cell sorting (Human B Cell Isolation Kit II, Miltenyi Biotec). Target cell purity was determined by flow cytometry by staining for markers of B cells, T cells and monocytes (CD19, CD3, CD14, respectively; BD Biosciences). Data was collected on a FACsCaliber flow cytometer and analyzed using FloJo software (BD Biosciences). […] Negatively selected human B cells were stimulated with 10 μg/mL anti-IgM F(ab′)2 (Jackson ImmunoResearch) in 96 well plates. […] B cells were stimulated for 72 hr at 37° C., 5% CO2. Proliferation was measured using the CellTiter-Glo reagent (Promega), as measured on a luminometer. Mean values were plotted against maximum proliferation and IC50 values were determine using GraphPad Prism v5 software.

In experiment [4] the test system is TNFα expression by FcγR-activated primary human macrophages. As to the kind of experiment: FcγR activation of primary human macrophages: TNFα expression. It is filed as cell-based. As to conditions: Macrophage, human monocyte derived macrophages, plate-bound IgG.
From the text: as §1, §2, §3

For experiment [5], the system named is collagen induced arthritis (CIA) in female Lewis rats. Briefly: Rat collagen-induced arthritis model. The note with it: oral gavage BID, therapeutic administration, read-out: Ankle histiopathology ED50. It is filed as in vivo. The text has this:
The collagen induced arthritis (CIA) model in female Lewis rats requires primary T and B cell immune responses to type II collagen (CII) immunization for the development of a severe inflammatory disease (see Goldschmidt T J, Holmdahl R. Cell Immunol. 154(1):240-8, 1994; Helfgott, S. M., et al; Clin. Immunol. Immunopathol. 31:403, 1984; Holmdahl R. et al., J Autoimmun. 7(6):739-52, 1994; and Stuart, J. M., et al., J. Exp. Med. 155:1, 1982). Clinical disease onsets after a secondary CII challenge and the disease progresses over the following eight days.
Generally, female Lewis rats were immunized with bovine collagen type II in incomplete Freund's adjuvant. […] Clinical severity of arthritis was assessed by caliper measurements of ankles taken every day beginning on […].
Detailed protocol: Female Lewis rats were immunized subcutaneously with bovine collagen type II (1:1 emulsion of 2 mg/ml bovine CII in 0.01 N acetic acid: Incomplete Freund's Adjuvant) at three sites of back skin. […] Clinical severity of CIA was assessed by caliper measurements of ankles taken every day beginning on Day 9. […] Baseline ankle caliper measurements for established disease animals was assessed on day 1 of therapeutic dosing and animals were randomly assigned to treatment groups after confirmation of clinically disease onset (0.2751-0.2755 in). […]

In a further experiment the target is T2, BTK (Homo sapiens, UniProt Q06187).
T2 construct: purchased Upstate 14-552
T2 sequence (Q06187 whole entry): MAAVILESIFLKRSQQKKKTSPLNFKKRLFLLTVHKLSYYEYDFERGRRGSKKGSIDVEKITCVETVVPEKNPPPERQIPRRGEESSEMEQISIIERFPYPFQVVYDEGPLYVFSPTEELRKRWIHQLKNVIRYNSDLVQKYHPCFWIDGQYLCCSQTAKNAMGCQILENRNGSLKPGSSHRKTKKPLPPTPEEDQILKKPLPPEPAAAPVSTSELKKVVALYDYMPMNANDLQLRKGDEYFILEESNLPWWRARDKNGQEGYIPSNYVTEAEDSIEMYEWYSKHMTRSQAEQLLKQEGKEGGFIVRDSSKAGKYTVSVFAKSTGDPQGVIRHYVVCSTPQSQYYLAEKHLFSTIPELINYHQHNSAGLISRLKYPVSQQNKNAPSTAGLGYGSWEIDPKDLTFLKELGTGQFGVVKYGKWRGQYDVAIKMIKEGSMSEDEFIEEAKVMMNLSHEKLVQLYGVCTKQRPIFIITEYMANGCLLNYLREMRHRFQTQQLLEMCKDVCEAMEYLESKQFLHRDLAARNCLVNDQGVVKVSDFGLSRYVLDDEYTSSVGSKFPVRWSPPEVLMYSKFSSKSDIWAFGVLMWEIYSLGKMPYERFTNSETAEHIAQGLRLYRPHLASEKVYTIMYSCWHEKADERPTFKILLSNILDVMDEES
Briefly: In vitro BTK kinase assay: BTK-POLYGAT-LS assay. It counts as biochemical. The note with it: ATP 10 uM, polyGAT 100 nM, BTK 0.25 nM, 30 minutes. How it is done: In vitro BTK kinase assay: BTK-POLYGAT-LS ASSAY. The purpose of the BTK in vitro assay was to determine compound potency against BTK through the measurement of IC50. Compound inhibition was measured after monitoring the amount of phosphorylation of a fluorescein-labeled polyGAT peptide (Invitrogen PV3611) in the presence of active BTK enzyme (Upstate 14-552), ATP, and inhibitor. The BTK kinase reaction was done in a black 96 well plate (costar 3694). For a typical assay, a 24 uL aliquot of an ATP/peptide master mix (final concentration; ATP 10 uM, polyGAT 100 nM) in kinase buffer (10 mM Tris-HCl pH 7.5, 10 mM MgCl2, 200 uM […], 5 mM DTT, 0.01% Triton X-100, and 0.2 mg/ml casein) was added to each well. Next, 1 uL of a 4-fold, 40× compound titration in 100% DMSO solvent was added, followed by adding 15 uL of BTK enzyme mix in 1× kinase buffer (with a final concentration of 0.25 nM). The assay was incubated for 30 minutes before being stopped with 28 uL of a 50 mM EDTA solution. Aliquots (5 uL) of the kinase reaction were transferred to a low volume white 384 well plate (Corning 3674), and 5 uL of a 2× detection buffer (Invitrogen PV3574, with 4 nM Tb—PY20 antibody, Invitrogen PV3552) was added. […] Time resolved fluorescence (TRF) on Molecular Devices M5 (332 nm excitation; 488 nm emission; 518 nm fluorescein emission) was measured.

T1 sequence (Q12809 whole entry): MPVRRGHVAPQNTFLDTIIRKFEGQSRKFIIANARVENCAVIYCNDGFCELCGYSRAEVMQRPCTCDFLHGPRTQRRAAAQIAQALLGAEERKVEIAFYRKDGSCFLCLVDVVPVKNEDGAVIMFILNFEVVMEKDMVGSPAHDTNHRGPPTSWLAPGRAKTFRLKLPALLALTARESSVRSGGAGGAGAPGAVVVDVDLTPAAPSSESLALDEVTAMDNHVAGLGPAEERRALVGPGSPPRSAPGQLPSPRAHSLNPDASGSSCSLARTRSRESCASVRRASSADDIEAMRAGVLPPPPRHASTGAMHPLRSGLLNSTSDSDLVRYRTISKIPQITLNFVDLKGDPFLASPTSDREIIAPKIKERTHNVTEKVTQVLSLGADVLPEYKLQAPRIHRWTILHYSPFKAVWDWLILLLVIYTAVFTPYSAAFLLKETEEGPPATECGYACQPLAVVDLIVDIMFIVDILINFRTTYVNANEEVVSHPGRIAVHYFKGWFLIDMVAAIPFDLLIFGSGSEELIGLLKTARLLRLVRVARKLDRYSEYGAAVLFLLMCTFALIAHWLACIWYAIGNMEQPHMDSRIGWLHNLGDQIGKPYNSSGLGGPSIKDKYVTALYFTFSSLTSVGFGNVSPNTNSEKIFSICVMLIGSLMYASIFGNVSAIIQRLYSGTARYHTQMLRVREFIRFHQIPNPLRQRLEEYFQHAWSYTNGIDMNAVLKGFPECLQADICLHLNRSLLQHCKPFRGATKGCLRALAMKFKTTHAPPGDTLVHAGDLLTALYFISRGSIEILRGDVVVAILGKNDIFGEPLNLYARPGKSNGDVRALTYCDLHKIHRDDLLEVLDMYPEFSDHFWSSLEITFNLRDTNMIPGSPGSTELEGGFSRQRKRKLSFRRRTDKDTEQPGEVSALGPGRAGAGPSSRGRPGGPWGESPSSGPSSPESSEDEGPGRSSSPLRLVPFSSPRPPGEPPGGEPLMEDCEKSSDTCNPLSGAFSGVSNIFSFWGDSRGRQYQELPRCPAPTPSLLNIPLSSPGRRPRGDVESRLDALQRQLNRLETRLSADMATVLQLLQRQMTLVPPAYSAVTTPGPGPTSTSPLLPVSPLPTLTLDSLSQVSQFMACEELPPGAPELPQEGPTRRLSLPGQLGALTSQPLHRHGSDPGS

Consider `Nc1ncnc(N2CC[C@H](O)[C@@H](N3CCC[C@@H](Nc4cc(Cl)cc(C(F)(F)F)c4)C3=O)C2)c1F` [Compound I], for which the IC50 in experiment [1] (ELISA (FIG. 7B), read-out: IC50 for inhibition of IL-6) is 0.35 µM; in experiment [1] (supernatants after 18 hrs, ELISA, read-out: IC50, inhibition of IL-6 expression) it was 0.35 µM; in experiment [2], 9.4 µM; with Human CD19+ B cells, 0.26 µM; in experiment [4] (ELISA (FIG. 7A), read-out: IC50 for inhibition of TNFα), 1.08 µM; in experiment [4] (supernatants after 4 hrs, ELISA, read-out: IC50, inhibition of TNFα expression), 1.1 µM. Moreover, the IC50 against BTK came to 0.00197 µM. A half-maximal response in experiment [3] (EC50) required 0.15 µM. The 50% effective dose (ED50) in experiment [5] is 4.08 mg/kg.
